Molecular target: D(3) dopamine receptor (Rattus norvegicus, UniProt P19020)
Assay: Compound was tested for binding affinity at the rat Dopamine receptor D3 expressed in Chinese hamster ovary cells; No significant affinity.
Format: cell-based

Sequence of D(3) dopamine receptor (P19020 whole entry): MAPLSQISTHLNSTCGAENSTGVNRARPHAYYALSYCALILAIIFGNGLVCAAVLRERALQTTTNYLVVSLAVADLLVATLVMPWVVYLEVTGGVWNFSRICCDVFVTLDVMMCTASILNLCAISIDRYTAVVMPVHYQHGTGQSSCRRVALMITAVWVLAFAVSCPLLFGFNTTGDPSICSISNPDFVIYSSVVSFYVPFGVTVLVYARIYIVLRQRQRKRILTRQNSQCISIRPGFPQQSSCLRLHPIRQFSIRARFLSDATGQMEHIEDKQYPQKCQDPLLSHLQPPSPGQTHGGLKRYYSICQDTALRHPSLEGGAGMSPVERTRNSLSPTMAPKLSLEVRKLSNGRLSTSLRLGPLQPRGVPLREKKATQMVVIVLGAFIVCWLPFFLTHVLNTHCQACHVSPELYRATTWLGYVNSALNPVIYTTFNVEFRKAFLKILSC

For `CCCN[C@H]1COc2ccccc2[C@@H]1C.Cl`, the “Log Ki” value was under -6.5.
`C=C1c2ccccc2OC[C@@H]1NCCC.Cl` gave a Log Ki of over -6.5.
